Where two headings read alike, the source gives them in different places.
Experiments:
NCI-H460 cells = assay: DNA damage pathway markers in NCI-H460 cells treated ex vivo, laser scanning cytometry; assay type: cell-based; settings: NCI-H460, 0.01 μM drug
Experimental: The cell lines, H460, HCT116, and HL60 were used in the study. H460 (30,000 cells/well) and HCT116 (15,000 cells/well) were grown in three 48 well plates. HL60 suspension cells were grown in five 25 cm flasks (1×10^6 cells/flask). Cells were treated with the following two concentrations of gemcitabine and SN-38:
Cells treated with DMSO (final concentration 0.01%) were used as the control. Following 24 hours of drug treatment, cells were washed and fixed at 0 hour, 6 hour, and 24 hour timepoints. Cells were then stained for detection of the following markers: γ-H2AX, survivin, BRCA1, BRCA2, FAD51, and ATM. Expression levels for each biomarker were determined based upon mean fluorescence intensity (MFI) by laser scanning cytometry (iCys).

HL60 = tested on: HL60
Experimental: (§1) Gemcitabine inhibits thymidylate synthetase, leading to inhibition of DNA synthesis and cell death. The cells were treated at concentrations of 0.01, 0.1, 1 and 10 μM in triplicate with appropriate controls.
(§2) A MTT cytotoxicity assay was performed. Optical density (OD) was determined for each sample, and IC50 values were determined (Graphpad Prism software using 4-parameter, non-linear curve fitting) for each drug relative to each cell line. The dose response of SN-38 and gemcitabine in the different cell lines was plotted.

NCI-H460 = tested on: NCI-H460
Experimental: as §1, §2

HCT116 cells = assay: Biomarker assay qualification, drug-treated HCT116 cells, MFI by iCys; assay type: cell-based, human; settings: HCT116 treated with 10 μM SN-38 for 24 hours
Experimental: Primary and secondary antibodies were obtained from commercial sources. Control (0.1% DMSO) and drug-treated (SN-38, 10 uM) tumor cell lines and peripheral blood mononuclear cells (PBMCs) from healthy donors were used for biomarker qualification. The cell lines employed were as follows: HCT 116 (human colon carcinoma), MCF7 (human breast adenocarcinoma), A549 (human lung carcinoma), and SK-BR-3 (human breast adenocarcinoma, derived from metastatic site).
(§3) Colorectal HCT-116 tumor cell lines treated with drug (SN-38, 10 μM) or DMSO (0.1%) were used as positive and negative controls, respectively, for the assay development for topoisomerase I and γ-H2Ax. […] After incubation, cells were detached using 0.25% trypsin for 2-5 minutes, washed, counted, fixed with 2% PFA for 20 minutes, and cytospun onto glass slides.
as §3, with “controls” for “controls, respectively,”, “of RAD51.” for “for topoisomerase I and γ-H2Ax.”
For each marker, one to three different antibodies were tested. […] Cells were cover slipped and fluorescence intensity was quantified using iCys (CompuCyte, Westwood, Mass.). […]

[1] = 24 hr drug + 24 hr without drug

Experimental for metastatic breast cancer: Seventy patients were enrolled in the trial (n=35 per arm). […] Fifteen (21.4%) patients had received prior bevacizumab. Among five patients with HER2-positive disease, all had received prior trastuzumab; none had received prior lapatinib.
Patients were randomized 1:1 into two treatment arms, comparing the same dose with a different dosing frequency. 4-arm-PEG-gly-irino-20K was administered at 145 mg/m^2 every 14 days (q14d) or every 21 days (q21 d) as an intravenous infusion over 90 minutes on day 1. Patients received treatment until disease progression or unacceptable toxicity. The drug dosage was dose-reduced by 25 mg/m^2 for grade 3-4 hematologic toxicity, grade 3-4 diarrhea, and other grade 2-4 non-hematologic toxicities (other than alopecia, anorexia, asthenia, and untreated nausea/vomiting). Protocol retreatment criteria required that toxicities and hematologic parameters were resolved to the following grades or levels prior to administration of the next dose: diarrhea, fully resolved; other non-hematologic toxicities, grade 1; neutrophils≧1,500/mm^3; platelets≧100,000/mm^3; and hemoglobin≧9 g/dL.
Medical history was taken at screening and on day 1 of each cycle. Physical exam was performed and serum CA27.29, complete blood count with differential, and serum chemistry were analyzed at screening, on day 1 of each cycle, and at end of treatment. Coagulation parameters were analyzed at screening and on day 1 of each cycle. Radiologic exam (either computed tomography or magnetic resonance imaging, with the same method per lesion used throughout the study) occurred at screening (within 28 days of day one, cycle 1) and approximately every 6 weeks thereafter until progressive disease, start of new anticancer therapy, or end of study. Patients were contacted approximately every 3 months after the end-of-treatment visit to assess progression (in the absence of progression on study), survival, receipt of subsequent anti-cancer therapy, and resolution of toxicity.
Response was measured by RECIST version 1.0 (Therasse, P., et al., 2000, Journal of the National Cancer Institute, 92 (3), 205-216) and toxicities were graded according to the National Cancer Institute Common Terminology Criteria for Adverse Events (NCI-CTCAE) version 3.0.
The primary endpoint was ORR, with confirmation of all responses by a second imaging procedure at least 28 days from the initial observation of response. Secondary endpoints were PFS, overall survival (OS), 6-month and 1-year survival, and safety. Exploratory endpoints included change from baseline in CA27.29, UGT1A1 and ABCC2 polymorphism for correlation with select toxicities.
Three populations for analysis were defined: 1) intent-to-treat (ITT), 2) efficacy evaluable, and 3) safety. The ITT population was the primary population for all efficacy analyses and included all randomized patients. […] The safety population consisted of all patients who received at least one dose or partial dose of chemotherapeutic agent.
Summary statistics were used for continuous variables, frequency counts and percentages were used for categorical variables. Ninety-five percent confidence interval were calculated for ORR using the Exact method. Time-to-event variables were analyzed using the Kaplan-Meier method.

Molecule: CCc1c2c(nc3ccc(O)cc13)-c1cc3c(c(=O)n1C2)COC(=O)[C@]3(O)CC [SN-38]
- ATM % change in MFI (NCI-H460 cells; 24 hr drug): 120%
- ATM % change of positive cells (NCI-H460 cells; 24 hr drug): 13%
- BRCA1 % change in MFI (NCI-H460 cells; 24 hr drug): −8%
- BRCA1 % change of positive cells (NCI-H460 cells; 24 hr drug): 143%
- BRCA2 % change in MFI (NCI-H460 cells; 24 hr drug): −20%
- BRCA2 % change of positive cells (NCI-H460 cells; 24 hr drug): 131%
- RAD51 % change in MFI (NCI-H460 cells; 24 hr drug): −8%
- RAD51 % change of positive cells (NCI-H460 cells; 24 hr drug): 180%
- Survivin % change in MFI (NCI-H460 cells; 24 hr drug): 149%
- Survivin % change of positive cells (NCI-H460 cells; 24 hr drug): −18%
- yH2AX % change in MFI (NCI-H460 cells; 24 hr drug): 1%
- yH2AX % change of positive cells (NCI-H460 cells; 24 hr drug): 235%
- ATM % change in MFI (NCI-H460 cells; 24 hr drug + 6 hr without drug): 329%
- ATM % change of positive cells (NCI-H460 cells; 24 hr drug + 6 hr without drug): 88%
- BRCA1 % change in MFI (NCI-H460 cells; 24 hr drug + 6 hr without drug): −10%
- BRCA1 % change of positive cells (NCI-H460 cells; 24 hr drug + 6 hr without drug): −52%
- BRCA2 % change in MFI (NCI-H460 cells; 24 hr drug + 6 hr without drug): −16%
- BRCA2 % change of positive cells (NCI-H460 cells; 24 hr drug + 6 hr without drug): 8%
- RAD51 % change in MFI (NCI-H460 cells; 24 hr drug + 6 hr without drug): 120%
- RAD51 % change of positive cells (NCI-H460 cells; 24 hr drug + 6 hr without drug): 337%
- Survivin % change in MFI (NCI-H460 cells; 24 hr drug + 6 hr without drug): 203%
- Survivin % change of positive cells (NCI-H460 cells; 24 hr drug + 6 hr without drug): 4%
- yH2AX % change in MFI (NCI-H460 cells; 24 hr drug + 6 hr without drug): −7%
- yH2AX % change of positive cells (NCI-H460 cells; 24 hr drug + 6 hr without drug): 919%
- ATM % change in MFI (NCI-H460 cells; [1]): 41%
- ATM % change of positive cells (NCI-H460 cells; [1]): 105%
- BRCA1 % change in MFI (NCI-H460 cells; [1]): 162%
- BRCA1 % change of positive cells (NCI-H460 cells; [1]): 3700%
- BRCA2 % change in MFI (NCI-H460 cells; [1]): 263%
- BRCA2 % change of positive cells (NCI-H460 cells; [1]): 261%
- RAD51 % change in MFI (NCI-H460 cells; [1]): 32%
- RAD51 % change of positive cells (NCI-H460 cells; [1]): 60%
- Survivin % change in MFI (NCI-H460 cells; [1]): 210%
- Survivin % change of positive cells (NCI-H460 cells; [1]): 85%
- yH2AX % change in MFI (NCI-H460 cells; [1]): −77%
- yH2AX % change of positive cells (NCI-H460 cells; [1]): 328%
- dose response in MTT cytotoxicity assay (HL60; HL60, 72 hours, 0.01-10 μM): Good dose response
- dose response in MTT cytotoxicity assay (NCI-H460; H460, 72 hours, 0.01-10 μM): Good dose response
- γ-H2Ax High, MFI (x10^3) (HCT116 cells; staining panel 1): HCT116 (SN38), 487 x10^3
- RAD51 High, MFI (x10^3) (HCT116 cells; staining panel 2): HCT116 (SN38), 948 x10^3

Molecule: pentaerythritolyl-4-arm-(PEG-1-methylene-2 oxo-vinylamino acetate linked-irinotecan)-20K [4-arm-PEG-gly-irino-20K]
- objective response rate (ORR) (metastatic breast cancer; 145 mg/m^2 IV, every 14 days or every 21 days): 28.6%
- Overall Survival (OS) (metastatic breast cancer; Total): 10.3 months
- Progression Free Survival (PFS) (metastatic breast cancer; Total): 4.6 months
- Overall best CA27.29 response (50% or better decline in at least one observation from baseline) (metastatic breast cancer; Total, 16/45): 36% (16/45)
- Overall Response Rate (ORR) (metastatic breast cancer; Total, N = 66): 29% (N = 66)
- Overall Survival (OS) (metastatic breast cancer; q21d): (13.1 months in q21d)
- Progression Free Survival (PFS) (metastatic breast cancer; q21d): (5.3 months in q21d)

Molecule: Nc1ccn([C@@H]2O[C@H](CO)[C@@H](O)C2(F)F)c(=O)n1 [Gemcitabine, gemcitabine]
- ATM % change in MFI (NCI-H460 cells; 24 hr drug): 125%
- ATM % change of positive cells (NCI-H460 cells; 24 hr drug): −28%
- BRCA1 % change in MFI (NCI-H460 cells; 24 hr drug): −3%
- BRCA1 % change of positive cells (NCI-H460 cells; 24 hr drug): 162%
- BRCA2 % change in MFI (NCI-H460 cells; 24 hr drug): −43%
- BRCA2 % change of positive cells (NCI-H460 cells; 24 hr drug): 130%
- RAD51 % change in MFI (NCI-H460 cells; 24 hr drug): 7%
- RAD51 % change of positive cells (NCI-H460 cells; 24 hr drug): 62%
- Survivin % change in MFI (NCI-H460 cells; 24 hr drug): −32%
- Survivin % change of positive cells (NCI-H460 cells; 24 hr drug): −32%
- yH2AX % change in MFI (NCI-H460 cells; 24 hr drug): 3%
- yH2AX % change of positive cells (NCI-H460 cells; 24 hr drug): 204%
- ATM % change in MFI (NCI-H460 cells; 24 hr drug + 6 hr without drug): 438%
- ATM % change of positive cells (NCI-H460 cells; 24 hr drug + 6 hr without drug): 80%
- BRCA1 % change in MFI (NCI-H460 cells; 24 hr drug + 6 hr without drug): 18%
- BRCA1 % change of positive cells (NCI-H460 cells; 24 hr drug + 6 hr without drug): −54%
- BRCA2 % change in MFI (NCI-H460 cells; 24 hr drug + 6 hr without drug): −28%
- BRCA2 % change of positive cells (NCI-H460 cells; 24 hr drug + 6 hr without drug): 6%
- RAD51 % change in MFI (NCI-H460 cells; 24 hr drug + 6 hr without drug): 127%
- RAD51 % change of positive cells (NCI-H460 cells; 24 hr drug + 6 hr without drug): 613%
- Survivin % change in MFI (NCI-H460 cells; 24 hr drug + 6 hr without drug): 223%
- Survivin % change of positive cells (NCI-H460 cells; 24 hr drug + 6 hr without drug): 1%
- yH2AX % change in MFI (NCI-H460 cells; 24 hr drug + 6 hr without drug): 40%
- yH2AX % change of positive cells (NCI-H460 cells; 24 hr drug + 6 hr without drug): 1235%
- ATM % change in MFI (NCI-H460 cells; [1]): 151%
- ATM % change of positive cells (NCI-H460 cells; [1]): 40%
- BRCA1 % change in MFI (NCI-H460 cells; [1]): 206%
- BRCA1 % change of positive cells (NCI-H460 cells; [1]): 3750%
- BRCA2 % change in MFI (NCI-H460 cells; [1]): 296%
- BRCA2 % change of positive cells (NCI-H460 cells; [1]): 167%
- RAD51 % change in MFI (NCI-H460 cells; [1]): 23%
- RAD51 % change of positive cells (NCI-H460 cells; [1]): 260%
- Survivin % change in MFI (NCI-H460 cells; [1]): 457%
- Survivin % change of positive cells (NCI-H460 cells; [1]): −14%
- yH2AX % change in MFI (NCI-H460 cells; [1]): 288%
- yH2AX % change of positive cells (NCI-H460 cells; [1]): 1834%
- dose response in MTT cytotoxicity assay (HL60): Good dose response
- dose response in MTT cytotoxicity assay (NCI-H460): Good dose response
